Patent US20020123513A1, “Use of glycogen phosphorylase inhibitors to inhibit tumor growth” (priority 2000, published 2002)

Key:
[1] = target: T1, human liver glycogen phosphorylase a (HLGPa) (Homo sapiens, UniProt P06737); experiment: GPa activity assay, reverse direction (release of inorganic phosphate from glucose-1-phosphate), HLGPa; type: biochemical; conditions: recombinant human liver GPa, glucose present
T1 construct: made in house; host or cells: E. coli XL-1 Blue (pKK233-2) or Sf9 insect cells (pBlueBac II baculovirus)
T1 sequence (P06737 1-847): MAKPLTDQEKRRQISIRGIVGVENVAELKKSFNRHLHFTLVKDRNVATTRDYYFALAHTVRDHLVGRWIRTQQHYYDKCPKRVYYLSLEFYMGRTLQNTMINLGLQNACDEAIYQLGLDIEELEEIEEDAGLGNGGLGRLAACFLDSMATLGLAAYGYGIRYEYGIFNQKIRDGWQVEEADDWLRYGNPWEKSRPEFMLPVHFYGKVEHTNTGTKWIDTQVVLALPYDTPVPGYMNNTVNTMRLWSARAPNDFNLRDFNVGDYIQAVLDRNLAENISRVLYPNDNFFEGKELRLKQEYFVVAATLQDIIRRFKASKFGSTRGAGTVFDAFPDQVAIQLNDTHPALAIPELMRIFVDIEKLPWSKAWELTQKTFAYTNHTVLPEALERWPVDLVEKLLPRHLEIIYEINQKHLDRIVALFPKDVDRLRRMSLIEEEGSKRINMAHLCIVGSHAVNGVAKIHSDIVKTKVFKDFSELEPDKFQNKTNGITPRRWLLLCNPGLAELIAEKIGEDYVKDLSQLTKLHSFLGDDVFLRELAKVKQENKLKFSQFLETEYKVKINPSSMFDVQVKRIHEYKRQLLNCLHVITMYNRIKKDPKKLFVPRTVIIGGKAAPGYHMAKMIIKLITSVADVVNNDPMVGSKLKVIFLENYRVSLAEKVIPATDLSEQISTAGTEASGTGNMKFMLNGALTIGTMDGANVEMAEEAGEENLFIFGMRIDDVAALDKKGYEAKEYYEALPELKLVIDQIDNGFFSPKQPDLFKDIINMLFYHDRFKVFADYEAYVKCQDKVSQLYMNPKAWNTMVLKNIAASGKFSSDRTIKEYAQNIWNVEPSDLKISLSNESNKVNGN
Method: (§1) In this invention, enzyme activity is determined by measurement of the reverse activity of GPa, i.e., by measuring the release of phosphate due to the incorporation of glucose-1-phosphate into glycogen, where the amount of phosphate released is determined using the spectrophotometric method and experimental conditions described hereinbelow.
(§2) The three different purified glycogen phosphorylase (GP) isoenzymes from a human source, wherein glycogen phosphorylase is in the activated “a” state (referred to as glycogen phosphorylase a, or the abbreviation GPa), and referred to here as human liver glycogen phosphorylase a (HLGPa), human muscle glycogen phosphorylase a (HMGPa), and human brain glycogen phosphorylase a (HBGPa), can be obtained by the following procedures.
(§3) The effect of the compounds of Formula I or IA on the activity of the activated form of glycogen phosphorylase (GPa) can be determined by one of two methods; glycogen phosphorylase a activity is measured in the forward direction by monitoring the production of glucose-1-phosphate from glycogen or by following the reverse reaction, measuring glycogen synthesis from glucose-I-phosphate by the release of inorganic phosphate. All reactions are run in triplicate in 96-well microtiter plates and the change in absorbance due to formation of the reaction product is measured at the wavelength specified below in a MCC/340 MKII Elisa Reader (Lab Systems, Finland), connected to a Titertech Microplate Stacker (ICN Biomedical Co, Huntsville, Ala.).
(§4) Buffer B is at pH 7.2 and contains 50 mM HEPES, 100 mM KCl, 2.5 mM EGTA, 2.5 mM MgCl2 and 0.5 mM dithiothreitol. […] The compounds to be tested are added as 5 μL of solution in 14% DMSO prior to the addition of the enzyme. […] After a 20 minute incubation at room temperature, the absorbance is measured at 620 nm.
(§5) The above assays carried out with a range of concentrations of test compound allows the determination of an IC50 value (as defined hereinabove, see e.g., p. 14) for the in vitro inhibition of GPa enzyme activity by that test compound.

[2] = target: T2, human muscle glycogen phosphorylase a (HMGPa) (Homo sapiens, UniProt P11217); experiment: GPa activity assay, reverse direction (release of inorganic phosphate from glucose-1-phosphate), HMGPa; type: biochemical; conditions: recombinant human muscle GPa, glucose present
T2 construct: made in house; host or cells: E. coli XL-1 Blue (pKK233-2)
T2 sequence (P11217 1-842): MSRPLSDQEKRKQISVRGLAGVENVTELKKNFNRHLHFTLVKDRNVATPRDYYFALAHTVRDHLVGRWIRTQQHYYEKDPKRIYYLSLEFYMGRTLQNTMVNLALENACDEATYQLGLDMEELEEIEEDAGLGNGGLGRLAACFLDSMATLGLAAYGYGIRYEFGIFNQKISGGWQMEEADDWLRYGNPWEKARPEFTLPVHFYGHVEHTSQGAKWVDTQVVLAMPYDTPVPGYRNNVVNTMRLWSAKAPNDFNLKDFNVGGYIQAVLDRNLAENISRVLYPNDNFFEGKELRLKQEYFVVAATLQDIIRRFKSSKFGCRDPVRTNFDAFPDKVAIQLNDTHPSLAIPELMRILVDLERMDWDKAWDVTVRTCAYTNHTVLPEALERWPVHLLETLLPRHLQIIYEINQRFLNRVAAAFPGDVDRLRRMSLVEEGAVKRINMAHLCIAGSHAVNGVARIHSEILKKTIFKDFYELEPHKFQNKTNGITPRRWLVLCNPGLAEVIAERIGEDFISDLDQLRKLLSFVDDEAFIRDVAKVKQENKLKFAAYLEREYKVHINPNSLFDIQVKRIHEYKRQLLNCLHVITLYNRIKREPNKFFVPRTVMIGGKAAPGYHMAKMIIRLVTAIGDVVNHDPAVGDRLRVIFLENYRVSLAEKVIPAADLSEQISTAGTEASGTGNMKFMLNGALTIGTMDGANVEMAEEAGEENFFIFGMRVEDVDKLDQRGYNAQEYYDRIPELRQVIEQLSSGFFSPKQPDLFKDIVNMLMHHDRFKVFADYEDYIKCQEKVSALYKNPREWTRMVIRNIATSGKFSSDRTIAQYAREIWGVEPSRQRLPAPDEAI
Method: as §1, §2, §3, §4, §5

Row | IC50 [1] [µM] | IC50 [2] [µM] | SMILES
1 | 0.137 | 0.071 | O=C(N[C@@H](Cc1ccccc1)C(=O)N1C[C@H](O)[C@@H](O)C1)c1cc2cc(Cl)ccc2[nH]1 [5-chloro-1H-indole-2-carboxylic acid [(1S)-benzyl-2-((3S,4S)-dihydroxy-pyrrolidin-1-yl)-2-oxo-ethyl-amide]
2 | 0.065 | 0.121 | O=C(N[C@@H](Cc1ccccc1)C(=O)N1CC(O)C1)c1cc2cc(Cl)ccc2[nH]1 [5-chloro-1H-indole-2-carboxylic acid [(1S)-benzyl-2-(3-hydroxy-azetidin-1-yl)-2-oxo-ethyl]-amide]
3 | 0.054 | 0.096 | O=C(N[C@@H](Cc1ccccc1)[C@@H](O)C(=O)N1CC[C@H](O)C1)c1cc2cc(Cl)ccc2[nH]1 [5-chloro-1H-indole-2-carboxylic acid [(1S)-benzyl-(2R)-hydroxy-3-((3S)-hydroxy-pyrrolidin-1-yl)-3-oxopropyl]-amide]
4 | 0.03 | 0.097 | O=C(N[C@@H](Cc1ccccc1)C(=O)N1C[C@@H](O)[C@@H](O)C1)c1cc2cc(Cl)ccc2[nH]1 [5-chloro-1H-indole-2-carboxylic acid [(1S)-benzyi-2-(cis-3,4-dihydroxypyrrolidin-1-yl)-2-oxo-ethyl]-amide]
5 | 0.307 | 0.433 | O=C(NCC(=O)N1CCSC1)c1cc2cc(Cl)ccc2[nH]1 [5-chloro-1H-indole-2-carboxylic acid (2-oxo-2-thiazolidin-3-yl-ethyl)-amide]
6 | 0.065 | 0.084 | O=C(N[C@@H](Cc1ccccc1)C(=O)N1CC(=NO)C1)c1cc2cc(Cl)ccc2[nH]1 [5-chloro-1H-indole-2-carboxylic acid [(1S)-benzyl-2-(3-hydroxyimino-azetidin-1-yl)-2-oxo-ethyl]-amide]
7 | 0.236 | 0.706 | O=C(N[C@@H](Cc1ccccc1)[C@@H](O)C(=O)N1CC(O)C1)c1cc2cc(Cl)ccc2[nH]1 [5-chloro-1H-indole-2-carboxylic acid [(1S)-benzyl-3-((3-hydroxyazetidin-1-yl)-(2R)-hydroxy-3-oxopropyl]-amide]
8 | 0.073 | 0.09 | O=C(N[C@@H](Cc1ccccc1)[C@@H](O)C(=O)N1C[C@H](O)[C@@H](O)C1)c1cc2cc(Cl)ccc2[nH]1 [5-chloro-1H-indole-2-carboxylic acid [(1S)-benzyl-(2R)-hydroxy-3-((3S,4S)-dihydroxy-pyrrolidin-1-yl)-3-oxopropyl]-amide]
9 | 0.045 | 0.085 | O=C(NC(Cc1ccccc1)C(=O)N1CCC(O)C1)c1cc2cc(Cl)ccc2[nH]1 (centres unmarked) [5-chloro-1H-indole-2-carboxylic acid [1-benzyl-2-(3-hydroxypyrrolidin-1-yl)-2-oxo-ethyl]-amide]
10 | 0.059 | 0.385 | O=C(N[C@@H](Cc1ccccc1)[C@@H](O)C(=O)N1C[C@@H](O)[C@@H](O)C1)c1cc2cc(Cl)ccc2[nH]1 [5-chloro-1H-indole-2-carboxylic acid [(1S)-benzyl-3-(cis-3,4-dihydroxy-pyrrolidin-1-yl)-(2R)-hydroxy-3-oxopropyl]-amide]
